For the assay, the system named is Blumeria (Erysiphe) graminis DC. f.sp. tritici E. Marchal. Kind of assay: Foliar systemicity test, wheat powdery mildew (band application on leaf). In kind it is in vivo. As to conditions: typically 400 ppm. The text has this: Wheat Powdery Mildew (WPM): HOST: Wheat (Triticum aestivum L.) variety Kanzler PATHOGEN: Blumeria (Erysiphe) graminis DC. f.sp. tritici E. Marchal
• 1. Wheat seed (8/pot) is planted in 8 cm diameter plastic pots in the greenhouse. • 2. When the primary leaf is fully expanded, the plants are cut back to four in each pot of which two are marked with a permanent marker 5 cm below the leaf tip on the upper leaf surface. Thus there are two band-treated and two untreated plants in each pot. • 3. A pipette is used to apply 5 µl of the formulated compound in a band on the lower leaf surface opposite the mark. The application band should cover the whole leaf width. After application, the plants are not moved until the bands are dry (half an hour or so later). • 4. After treated plants have dried, they are moved to the greenhouse and kept there for 2 days to allow for movement of the compounds. The plants are maintained with bottom watering. • 5. Two days after application, the plants are inoculated by dusting them with powdery mildew conidia in the greenhouse. Evaluations are typically made 7 - 8 days after inoculation.
Three types of compound movement are assessed by evaluating disease in three areas of each band-treated leaf. Translaminar movement: The percent disease area is assessed for the translaminar band area (marked area of the upper leaf surface directly opposite where band was applied on the lower leaf surface; width of band approximately 5 mm). Translaminar disease control is then calculated using the following formula: % disease control = 100 -(% disease in treated plants)/(% disease in untreated plants)x 100 [formula]
Distal movement and proximal movement: The distal and proximal disease-free zones on the upper leaf surface are measured in mm. The distal direction is from the band toward the leaf apex and the proximal direction is from the band toward the leaf base. The percent of the disease-free zone relative to the entire distance between the band and leaf apex or base is calculated. If disease is noticeably lighter in the distal or proximal area this is also noted.
• 1. […]

SMILES strings stand for the structures.

Take `COc1cc(C)c(C(=O)c2c(C)cccc2OC)c(OC)c1OC` [Example 1, 6,6'-dimethyl-2,2',3',4'-tetramethoxy-benzophenone]: the “Translaminar Activity ( % )” value (% disease control in translaminar band area, wheat variety Kanzler) is given as 100%. Further, the “Distal Movement (mm from band)” value (disease-free zone on wheat leaf (variety Kanzler) from band toward leaf apex, 5 µl band, inoculated 2 days after application) is given as 50 mm. Besides, the “Proximal Movement (mm from band)” value (disease-free zone on wheat leaf (variety Kanzler) from band toward leaf base, 5 µl band, inoculated 2 days after application) is recorded as 10 mm.

For the origin of these results see patent EP0897904B1, “Fungicidal 2-methoxybenzophenones” (BASF AKTIENGESELLSCHAFT, priority 1997, dated 1999).
